Data on 25 compounds can be found in ChEMBL document CHEMBL1158518, “Synthesis and evaluation of two series of 4'-aza-carbocyclic nucleosides as adenosine A2A receptor agonists” (Bioorg Med Chem Lett, 2010).

Assay [1] deals with T1, Adenosine receptor A2a (Homo sapiens, UniProt P29274). The experiment in a line: biochemical.
The target in assay [2] is T2, Adenosine receptor A3 (Homo sapiens) (UniProt P0DMS8).
T2 sequence (whole entry): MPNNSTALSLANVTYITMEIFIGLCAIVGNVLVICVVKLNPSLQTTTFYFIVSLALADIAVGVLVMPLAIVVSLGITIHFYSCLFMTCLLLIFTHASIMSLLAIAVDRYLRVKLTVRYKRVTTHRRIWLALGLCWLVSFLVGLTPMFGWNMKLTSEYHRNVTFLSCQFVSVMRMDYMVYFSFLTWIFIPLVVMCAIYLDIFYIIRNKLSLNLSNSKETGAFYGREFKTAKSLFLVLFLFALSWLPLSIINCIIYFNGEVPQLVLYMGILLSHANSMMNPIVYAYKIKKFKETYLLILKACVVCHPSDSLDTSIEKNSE
The experiment in a line: Partial agonist activity at human adenosine A3 receptor expressed in CHO cells assessed as I-AB-MECA-induced GTPPgammaS binding response. The format is cell-based. In general terms: Binding of GTPγS marks nucleotide exchange on a G protein.

Another assay concerns the target T3, Adenosine receptor A3 (Homo sapiens, UniProt P0DMS8).
T3 sequence (P0DMS8 whole entry): T2 sequence (whole entry)
The experiment in a line: Agonist activity at human adenosine A3 receptor expressed in CHO cells by GTPPgammaS binding assay. The format is cell-based.

The target in the next assay is T4, Adenosine receptor A1 (Homo sapiens, UniProt P30542).
T4 sequence (P30542 whole entry): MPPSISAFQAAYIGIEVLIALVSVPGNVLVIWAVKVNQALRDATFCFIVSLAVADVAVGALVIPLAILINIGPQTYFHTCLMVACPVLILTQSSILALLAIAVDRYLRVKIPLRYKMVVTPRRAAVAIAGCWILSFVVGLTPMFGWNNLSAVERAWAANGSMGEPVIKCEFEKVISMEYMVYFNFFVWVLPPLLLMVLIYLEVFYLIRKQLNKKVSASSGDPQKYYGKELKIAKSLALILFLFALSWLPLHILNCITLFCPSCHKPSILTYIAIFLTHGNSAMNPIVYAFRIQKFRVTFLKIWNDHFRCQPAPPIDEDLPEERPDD
The experiment in a line: Agonist activity at human adenosine A1 receptor expressed in CHO cells by GTPPgammaS binding assay. The format is cell-based.

Assay [3] concerns the target T1, Adenosine receptor A2a.
Description: Agonist activity at adenosine A2A receptor in human neutrophils assessed as inhibition of fMLP-induced reactive oxygen species release by chemiluminescence assay
The test system of assay [4] is PBMC. The experiment in a line: Antiinflammatory activity in rat PBMC assessed as inhibition of LPS-induced TNFalpha production after 20 hrs by ELISA.
Assay [5] concerns PBMC. The experiment in a line: Antiinflammatory activity in human PBMC assessed as inhibition of LPS-induced TNFalpha production after 20 hrs by ELISA. The format is functional, cell-based. (ELISA stands for enzyme-linked immunosorbent assay.)
Another assay deals with T5, Adenosine receptor A2b (Homo sapiens, UniProt P29275).
T5 sequence (P29275 whole entry): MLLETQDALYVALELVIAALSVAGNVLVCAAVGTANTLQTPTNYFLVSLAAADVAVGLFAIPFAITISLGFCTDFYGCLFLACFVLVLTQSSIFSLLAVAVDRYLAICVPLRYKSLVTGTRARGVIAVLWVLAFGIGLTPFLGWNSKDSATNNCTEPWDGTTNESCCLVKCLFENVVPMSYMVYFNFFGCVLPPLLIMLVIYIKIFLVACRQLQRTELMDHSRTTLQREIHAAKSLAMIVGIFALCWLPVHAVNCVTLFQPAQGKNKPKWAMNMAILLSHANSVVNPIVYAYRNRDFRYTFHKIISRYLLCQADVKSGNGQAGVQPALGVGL

Assay [6] concerns the target T2, Adenosine receptor A3 (Homo sapiens). The experiment in a line: Antagonist activity at human adenosine A3 receptor expressed in CHO cells assessed as I-AB-MECA-induced GTPPgammaS binding response. The format is functional, cell-based. On the set-up: concentration or dose not given beside the values.

T1 sequence (P29274 whole entry): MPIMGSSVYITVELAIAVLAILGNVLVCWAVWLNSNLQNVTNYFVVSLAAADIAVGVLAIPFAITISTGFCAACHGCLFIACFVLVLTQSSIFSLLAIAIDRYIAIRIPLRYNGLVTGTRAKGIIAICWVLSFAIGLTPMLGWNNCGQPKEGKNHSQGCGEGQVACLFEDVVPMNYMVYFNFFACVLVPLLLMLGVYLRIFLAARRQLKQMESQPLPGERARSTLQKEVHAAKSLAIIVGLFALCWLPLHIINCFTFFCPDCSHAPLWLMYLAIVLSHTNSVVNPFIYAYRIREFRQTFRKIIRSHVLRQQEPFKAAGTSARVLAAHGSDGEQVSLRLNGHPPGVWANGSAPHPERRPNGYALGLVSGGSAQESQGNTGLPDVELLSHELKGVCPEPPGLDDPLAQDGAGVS
Description for Adenosine receptor A2b: Agonist activity at human adenosine A2B receptor expressed in CHO cells assessed as effect on cAMP production by luciferase reporter gene assay

The Ki is a measure of affinity in units of concentration, obtained from inhibition or displacement. In turn, `CCC(=O)N[C@H]1C[C@@H](n2cnc3c(NCC(c4ccccc4)c4ccccc4)nc(NCCc4cn(CC(=O)O)cn4)nc32)[C@H](O)[C@@H]1O` came in with a Ki at Adenosine receptor A2a [1] of 97 nM.

As for `CC(C)n1cnc(CCNc2nc(NCC(c3ccccc3)c3ccccc3)c3ncn([C@@H]4C[C@H](NC(=O)Cc5ccccc5)[C@@H](O)[C@H]4O)c3n2)c1`, the affinity at Adenosine receptor A2a [1] corresponds to a Ki of 1670 nM.

Broadly, the EC50 is the midpoint of the concentration-response curve. As usually defined, the IC50 is the point on the concentration scale where inhibition reaches its midpoint. `CC(C)n1cnc(CCNc2nc(NCC(c3ccccc3)c3ccccc3)c3ncn([C@@H]4C[C@H](NC(=O)C5CCC5)[C@@H](O)[C@H]4O)c3n2)c1`: the Ki at Adenosine receptor A2a [1] amounted to 7.9 nM. Further, the Activity in assay [2] stood at 48%. Besides, the EC50 on Adenosine receptor A3 was 480 nM; on Adenosine receptor A1, greater than 10000 nM. The compound further came in with an IC50 against Adenosine receptor A2a [3] of 40 nM.

For the compound `CCC(=O)N[C@H]1C[C@@H](n2cnc3c(NCC(c4ccccc4)c4ccccc4)nc(NCCc4cn(CC)cn4)nc32)[C@H](O)[C@@H]1O`, the Ki on Adenosine receptor A2a [1] came out at 5.2 nM. The compound also came in with an EC50 on Adenosine receptor A3 of 44 nM. Moreover, it took 5 nM to reach half-maximal inhibition at Adenosine receptor A2a [3] (IC50).

`CCC(=O)N[C@H]1C[C@@H](n2cnc3c(NCC(c4ccccc4)c4ccccc4)nc(NCCc4cn(C)cn4)nc32)[C@H](O)[C@@H]1O` returned a Ki at Adenosine receptor A2a [1] of 4.6 nM. The results for the EC50 at Adenosine receptor A3 and on Adenosine receptor A1 were 42 nM and greater than 10000 nM, respectively. At Adenosine receptor A2a [3], this compound returned an IC50 of 4.7 nM.

On to `CCNC(=O)[C@H]1O[C@@H](n2cnc3c(N)nc(NCCc4ccc(CCC(=O)O)cc4)nc32)[C@H](O)[C@@H]1O` [CGS-21680], for which the values for the IC50 in the assay on PBMC [4] and with PBMC [5] were 83 nM and 58 nM, respectively.

`Nc1nc(N[C@H](CO)Cc2ccccc2)nc2c1ncn2[C@@H]1C[C@H](n2ccccc2=O)[C@@H](O)[C@H]1O` displayed a Ki at Adenosine receptor A2a [1] of 5490 nM.

For `CC(C)n1cnc(CCNc2nc(NCC(c3ccccc3)c3ccccc3)c3ncn([C@@H]4C[C@H](NC(=O)CCc5ccccc5)[C@@H](O)[C@H]4O)c3n2)c1`, on Adenosine receptor A2a [1], the Ki is 5470 nM.

In turn, `CCc1cnn([C@H]2C[C@@H](n3cnc4c(NCC(c5ccccc5)c5ccccc5)nc(NCCc5cn(CC)cn5)nc43)[C@H](O)[C@@H]2O)c1` displayed a Ki on Adenosine receptor A2a [1] of 146 nM.

With `CCC(=O)N[C@H]1C[C@@H](n2cnc3c(NCC(c4ccccc4)c4ccccc4)nc(NCCc4c[nH]cn4)nc32)[C@H](O)[C@@H]1O`, the EC50 was greater than 10000 nM at Adenosine receptor A2b, 139 nM at Adenosine receptor A3 and greater than 10000 nM at Adenosine receptor A1. In addition, the Ki on Adenosine receptor A2a [1] stood at 5.2 nM. On Adenosine receptor A2a [3], this compound yielded an IC50 of 5.9 nM.

`CCNC(=O)[C@H]1O[C@@H](n2cnc3c(N)ncnc32)[C@H](O)[C@@H]1O` [NECA]: the IC50 in the assay with PBMC [4] amounted to 187 nM; with PBMC [5] it was 40 nM.

On Adenosine receptor A2a [1], `Nc1nc(N[C@H](CO)Cc2ccccc2)nc2c1ncn2[C@@H]1C[C@H](n2cccn2)[C@@H](O)[C@H]1O` came in with an inhibitory constant (Ki) of 702 nM.

Take `CCC(=O)N[C@H]1C[C@@H](n2cnc3c(NC(CC)CC)nc(NCCc4cn(C(C)C)cn4)nc32)[C@H](O)[C@@H]1O`: the results for the IC50 with PBMC [4], in the assay on PBMC [5] and against Adenosine receptor A2a [3] were 458 nM, 5.9 nM and 8.3 nM, respectively. Moreover, the affinity on Adenosine receptor A2a [1], expressed as Ki, was 8 nM. The EC50 at Adenosine receptor A3 is 2520 nM; on Adenosine receptor A1, greater than 10000 nM.

As to `Cc1cnn([C@H]2C[C@@H](n3cnc4c(N)nc(N[C@H](CO)Cc5ccccc5)nc43)[C@H](O)[C@@H]2O)c1`, the Activity in [6] was greater than 50%. Moreover, the EC50 on Adenosine receptor A2b was greater than 10000 nM; on Adenosine receptor A3, 449 nM; on Adenosine receptor A1 it was greater than 10000 nM. For the same compound, at Adenosine receptor A2a [1], the affinity, expressed as Ki, was 229 nM. The compound also came in with an IC50 on Adenosine receptor A2a [3] of 56 nM.

Consider `CCCCC#Cc1nc(N)c2ncn([C@@H]3C[C@H](NC(=O)CC)[C@@H](O)[C@H]3O)c2n1`, for which the EC50 at Adenosine receptor A2b is greater than 10000 nM; on Adenosine receptor A3 it was 105 nM; at Adenosine receptor A1, greater than 10000 nM. At Adenosine receptor A2a [1], this compound showed a Ki of 18 nM. On Adenosine receptor A2a [3], this compound registered an IC50 of 12 nM.

Turning to `CCn1nnc([C@H]2O[C@@H](n3cnc4c(N)nc(N[C@H](CO)Cc5ccccc5)nc43)[C@H](O)[C@@H]2O)n1` [GW-328267], the Activity in assay [6] was greater than 50%. Moreover, the results for the IC50 with PBMC [4], in the assay on PBMC [5] and on Adenosine receptor A2a [3] were 2.9 nM, 1.3 nM and 0.4 nM, respectively. This compound yielded an EC50 on Adenosine receptor A1 of 882 nM.

Regarding `CCc1cnn([C@H]2C[C@@H](n3cnc4c(N)nc(N[C@H](CO)Cc5ccccc5)nc43)[C@H](O)[C@@H]2O)c1`, in assay [6], the Activity was greater than 50%. Besides, the values for the EC50 on Adenosine receptor A2b, on Adenosine receptor A3 and on Adenosine receptor A1 were greater than 10000 nM, 776 nM and greater than 10000 nM, respectively. Also, the Ki at Adenosine receptor A2a [1] came to 182 nM. The same compound gave an IC50 on Adenosine receptor A2a [3] of 62 nM.

`Nc1nc(N[C@H](CO)Cc2ccccc2)nc2c1ncn2[C@@H]1C[C@H](n2ncc3ccccc32)[C@@H](O)[C@H]1O` showed an inhibition constant (Ki) at Adenosine receptor A2a [1] of 5410 nM.

`CC(C)C(=O)N[C@H]1C[C@@H](n2cnc3c(NCC(c4ccccc4)c4ccccc4)nc(NCCc4cn(C(C)C)cn4)nc32)[C@H](O)[C@@H]1O`: the Ki at Adenosine receptor A2a [1] was 27 nM. 67 nM corresponded to half-maximal inhibition against Adenosine receptor A2a [3] (IC50).

As for `CCC(=O)N[C@H]1C[C@@H](n2cnc3c(NC(CC)CC)nc(NCCc4cn(CC)cn4)nc32)[C@H](O)[C@@H]1O`, the IC50 worked out at 255 nM with PBMC [4], 4.7 nM with PBMC [5] and 2.7 nM against Adenosine receptor A2a [3]. The EC50 on Adenosine receptor A2b was greater than 10000 nM; on Adenosine receptor A3, 1640 nM; at Adenosine receptor A1 it was greater than 10000 nM. For the same compound, the Ki on Adenosine receptor A2a [1] turned out to be 5.4 nM.

On to `Nc1nc(N[C@H](CO)Cc2ccccc2)nc2c1ncn2[C@@H]1C[C@H](n2cc(-c3ccccc3)cn2)[C@@H](O)[C@H]1O`, for which the Ki on Adenosine receptor A2a [1] is greater than 10000 nM.

At Adenosine receptor A2a [1], `CC(C)n1cnc(CCNc2nc(NCC(c3ccccc3)c3ccccc3)c3ncn([C@@H]4C[C@H](NC(=O)C(C)(C)C)[C@@H](O)[C@H]4O)c3n2)c1` had a Ki of 382 nM. On Adenosine receptor A2a [3], the IC50 amounted to 542 nM.

For `CCC(CC)CNc1nc(NCCc2cn(CC)cn2)nc2c1ncn2[C@@H]1C[C@H](n2cc(CO)cn2)[C@@H](O)[C@H]1O`, the Activity in assay [6] is greater than 50%. Besides, the results for the IC50 in the assay on PBMC [4], in the assay with PBMC [5] and on Adenosine receptor A2a [3] were 3590 nM, 21 nM and 5.3 nM, respectively. Further, the EC50 at Adenosine receptor A2b is greater than 10000 nM; at Adenosine receptor A3, 789 nM; on Adenosine receptor A1 it was 4100 nM. The compound also showed a Ki at Adenosine receptor A2a [1] of 5.4 nM.

As to `CCCC(=O)N[C@H]1C[C@@H](n2cnc3c(NCC(c4ccccc4)c4ccccc4)nc(NCCc4cn(C(C)C)cn4)nc32)[C@H](O)[C@@H]1O`, the Ki at Adenosine receptor A2a [1] came out at 39 nM. The compound further had an IC50 at Adenosine receptor A2a [3] of 160 nM.

As to `CC(C)n1cnc(CCNc2nc(NCC(c3ccccc3)c3ccccc3)c3ncn([C@@H]4C[C@H](NC(=O)C5CC5)[C@@H](O)[C@H]4O)c3n2)c1`, the Activity in assay [6] is greater than 50%. Affinity at Adenosine receptor A2a [1] was put at a Ki of 16 nM. Besides, the EC50 at Adenosine receptor A3 was 357 nM; at Adenosine receptor A1, greater than 10000 nM. The compound further registered an IC50 against Adenosine receptor A2a [3] of 60 nM.
